Where no end group is shown, it is not given here. [ ]: non-standard residue; d: D form. SulfoLink = iodoacetyl-modified agarose resin; Mpa = O=C(O)CCS
Legend:
[1] = tested on: KSHV-infected TREx-BCBL-1-RTA cells
CDK4 = test: Western blot of HSP90 client CDK4 in reactivated TREx-BCBL-1-RTA cells; assay type: cell-based; conditions: Figures 7C and S4
Method: The remaining TREx-BCBL-1-RTA cells (after cell viability assay) were harvested and washed twice with ice-cold PBS (pH 7.4). […] Bicinchoninic acid (BCA) protein quantification assay was used to determine the concentration of protein in the lysates. An equal amount of protein samples was denatured in Laemmli SDS loading buffer at 95 °C for 5 min. An equal volume of the denatured protein samples was resolved by SDS-PAGE and transferred to nitrocellulose membranes using the complete Bio-Rad Trans-Blot Turbo Transfer System (Bio-Rad, California). […] The membranes were incubated in an appropriate primary antibody. The primary antibodies used in this study were mouse anti-ORF57 (207.6) monoclonal antibody (Santa Cruz Biotechnology, sc-135746), mouse […]) monoclonal antibody (Novus Biologicals, NB200-167SS), rabbit anti-Hop monoclonal antibody (Abcam, ab126724), mouse anti-Hsp90α/β (F-8) monoclonal antibody (Santa Cruz, sc-13119), anti-CDK4 antibody [EPR4513-32-7] (Abcam, Ab108357), rabbit anti-β-actin [EPR2124] monoclonal antibody (Abcam, Ab213262), and HRP-conjugated anti-GAPDH antibody (EPR6256) (Abcam, ab185059). The membranes were washed three times using TBST and incubated in an appropriate secondary antibody. […]

KSHV vIRF3 = assay type: cell-based
Hop = test: Pulldown from HeLa cell lysates with resin-supported peptides, Western blot for Hop; assay type: binding; conditions: incubated overnight with resin-supported peptide, densitometry
HSP90 = test: Pulldown from HeLa cell lysates with resin-supported peptides, Western blot for HSP90; assay type: binding; conditions: full-length Hop IP experiments
HopTPR2A–HSP90CTD PPI = test: ELISA-based solid-phase HopTPR2A–HSP90CTD PPI inhibitory assay; assay type: biochemical; conditions: SAR, Figures 2 and 3; peptide 1 as control

Q: How did the Cytotoxicity [1] turn out when CPP-MAAVD (disulfide) [CPP-19] was run?
A: negligible cytotoxicity

Q: And the “Levels of HSP90 client CDK4” value (CDK4)?
A: same effect was not seen

Q: What about the “vIRF3 expression, dose-dependent analysis” value (KSHV vIRF3) of the same substance?
A: no effect on either

Q: What about the “ORF57 expression, dose-dependent analysis” value (KSHV ORF57) of the same substance?
A: no effect on either

Q: “IP-5: weakly active peptide 5 immobilized on SulfoLink resin, control (SulfoLink-[Mpa]MEDVE)” was tested. Which “Hop in elution after pulldown” value (Hop) did it give?
A: only trace amounts of Hop

Q: And the “HSP90 in elution after pulldown” value (HSP90)?
A: not observed

Q: Which “HopTPR2A–HSP90CTD PPI disruption activity (in words)” value (HopTPR2A–HSP90CTD PPI) does the source give for LWWPD [Peptide 12] here?
A: weak to moderate activity

From PMC11555673, “Modulators of the Hop-HSP90 Protein–Protein Interaction Disrupt KSHV Lytic Replication” (ACS Infectious Diseases, 2024)
